From PubChem BioAssay (NCI)
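Grown in 96-well plates, cells were treated for 48 hours with each compound at five concentrations. Insufficient inhibition: endpoint recorded as highest concentration tested. TGI is the concentration that stops growth completely.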

Assays:
Experiment in all cases: NCI anticancer screen, dose series, 48 h
[1] = system: DU-145 prostate
[2] = system: HT29 colon
[3] = system: A549 NSCLC
[4] = system: SF-268 CNS
[5] = system: HCT-15 colon
[6] = system: OVCAR-4 ovarian
[7] = system: OVCAR-8 ovarian
[8] = system: 786-0 renal
[9] = system: MOLT-4 leukemia
[10] = system: RPMI-8226 leukemia
[11] = system: SK-MEL-28 melanoma
[12] = system: T-47D breast
[13] = system: HL-60(TB) leukemia
[14] = system: UACC-257 melanoma
[15] = system: SR leukemia
[16] = system: IGROV1 ovarian
[17] = system: SW-620 colon
[18] = system: LOX IMVI melanoma
[19] = system: M14 melanoma
[20] = system: NCI-H522 lung
[21] = system: SF-295 CNS
[22] = system: NCI-H460 lung
[23] = system: OVCAR-5 ovarian
[24] = system: MDA-MB-231 breast
[25] = system: SNB-75 CNS
[26] = system: SK-MEL-2 melanoma
[27] = system: UO-31 renal
[28] = system: EKVX NSCLC
[29] = system: SNB-19 CNS
[30] = system: SK-MEL-5 melanoma
[31] = system: NCI-H226 lung
[32] = system: HS 578T breast
[33] = system: HOP-92 NSCLC
[34] = system: COLO 205 colon
[35] = system: HOP-62 NSCLC
[36] = system: HCC-2998 colon
[37] = system: HCT-116 colon
[38] = system: PC-3 prostate
[39] = system: MCF7 breast
[40] = system: U251 CNS
[41] = system: MALME-3M melanoma
[42] = system: KM12 colon
[43] = system: TK-10 renal
[44] = system: K-562 leukemia
[45] = system: CAKI-1 renal
[46] = system: SF-539 CNS
[47] = system: ACHN renal
[48] = system: MDA-MB-435
[49] = system: NCI/ADR-RES ovarian
[50] = system: MDA-N
[51] = system: NCI-H23 lung
[52] = system: CCRF-CEM leukemia
[53] = system: OVCAR-3 ovarian
[54] = system: SN12C renal
[55] = system: A498 renal
[56] = system: BT-549 breast
[57] = system: RXF 393 renal
[58] = system: UACC-62 melanoma
[59] = system: SK-OV-3 ovarian

Work on `CCn1cc(C(=O)O)c(=O)c2ccc(C)nc21` yielded a TGI [1] of over 100 µM, a TGI [2] of over 100 µM and a TGI [3] of over 100 µM. The TGI [4] was over 100 µM, the TGI [5] was over 100 µM and the TGI [6] was over 100 µM. The TGI [7] was over 100 µM, the TGI [8] was over 100 µM and the TGI [9] was over 100 µM. It also gave a TGI [10] of over 100 µM, a TGI [11] of over 100 µM and a TGI [12] of over 100 µM. For the same molecule, the TGI [13] was over 100 µM, the TGI [14] was over 100 µM and the TGI [15] was over 100 µM. The TGI [16] was over 100 µM, the TGI [17] was over 100 µM and the TGI [18] was over 100 µM. It also gave a TGI [19] of over 100 µM, a TGI [20] of over 100 µM and a TGI [21] of over 100 µM. For the same molecule, the TGI [22] was over 100 µM, the TGI [23] was over 100 µM and the TGI [24] was over 100 µM. It also gave a TGI [25] of over 100 µM, a TGI [26] of over 100 µM and a TGI [27] of over 100 µM. It also gave a TGI [28] of over 100 µM, a TGI [29] of over 100 µM and a TGI [30] of over 100 µM. The TGI [31] was over 100 µM, the TGI [32] was over 100 µM and the TGI [33] was over 100 µM. The TGI [34] was over 100 µM, the TGI [35] was over 100 µM and the TGI [36] was over 100 µM. It also gave a TGI [37] of over 100 µM, a TGI [38] of over 100 µM and a TGI [39] of over 100 µM. The TGI [40] was over 100 µM, the TGI [41] was over 100 µM and the TGI [42] was over 100 µM. For the same molecule, the TGI [43] was over 100 µM, the TGI [44] was over 100 µM and the TGI [45] was over 100 µM. The TGI [46] was over 100 µM, the TGI [47] was over 100 µM and the TGI [48] was over 100 µM. The TGI [49] was over 100 µM, the TGI [50] was over 100 µM and the TGI [51] was over 100 µM. For the same molecule, the TGI [52] was over 100 µM, the TGI [53] was over 100 µM and the TGI [54] was over 100 µM.

For `O=c1c(Nc2ccccc2)cn(CCOc2ccccc2)c(=O)n1CCOc1ccccc1`, the TGI [55] was over 100 µM, the TGI [1] was over 100 µM and the TGI [2] was over 100 µM. It also gave a TGI [3] of over 100 µM, a TGI [4] of 67.6 µM and a TGI [5] of over 100 µM. The TGI [6] was 54.4 µM, the TGI [8] was over 100 µM and the TGI [9] was over 100 µM. The TGI [10] was over 100 µM, the TGI [11] was over 100 µM and the TGI [13] was over 100 µM. It also gave a TGI [14] of over 100 µM, a TGI [15] of over 100 µM and a TGI [16] of over 100 µM. It also gave a TGI [17] of over 100 µM, a TGI [18] of over 100 µM and a TGI [19] of over 100 µM. The TGI [20] was 99.5 µM, the TGI [21] was over 100 µM and the TGI [22] was over 100 µM. It also gave a TGI [23] of over 100 µM, a TGI [56] of 72.3 µM and a TGI [27] of over 100 µM. For the same molecule, the TGI [28] was over 100 µM, the TGI [29] was over 100 µM and the TGI [30] was over 100 µM. The TGI [32] was 76.8 µM, the TGI [33] was 83.4 µM and the TGI [34] was over 100 µM. For the same molecule, the TGI [35] was 41.3 µM, the TGI [36] was over 100 µM and the TGI [37] was over 100 µM. The TGI [38] was over 100 µM, the TGI [39] was over 100 µM and the TGI [40] was over 100 µM. The TGI [41] was over 100 µM, the TGI [42] was over 100 µM and the TGI [57] was over 100 µM. The TGI [44] was over 100 µM, the TGI [58] was over 100 µM and the TGI [45] was over 100 µM. The TGI [47] was over 100 µM, the TGI [48] was over 100 µM and the TGI [49] was over 100 µM. The TGI [50] was over 100 µM, the TGI [51] was over 100 µM and the TGI [52] was over 100 µM. It also gave a TGI [53] of over 100 µM and a TGI [54] of over 100 µM.

With `NC(C/C=C/P(=O)(O)O)C(=O)O` (stereo unspecified) the TGI [1] was over 100 µM, the TGI [2] was over 100 µM and the TGI [3] was over 100 µM. For the same molecule, the TGI [4] was over 100 µM, the TGI [5] was over 100 µM and the TGI [6] was over 100 µM. The TGI [7] was over 100 µM, the TGI [9] was over 100 µM and the TGI [11] was over 100 µM. The TGI [12] was over 100 µM, the TGI [13] was over 100 µM and the TGI [14] was over 100 µM. For the same molecule, the TGI [15] was over 100 µM, the TGI [59] was over 100 µM and the TGI [16] was over 100 µM. The TGI [17] was over 100 µM, the TGI [18] was over 100 µM and the TGI [19] was over 100 µM. For the same molecule, the TGI [20] was over 100 µM, the TGI [21] was over 100 µM and the TGI [22] was over 100 µM. It also gave a TGI [23] of over 100 µM, a TGI [24] of over 100 µM and a TGI [25] of over 100 µM. The TGI [26] was over 100 µM, the TGI [27] was over 100 µM and the TGI [28] was over 100 µM. For the same molecule, the TGI [29] was over 100 µM, the TGI [30] was over 100 µM and the TGI [32] was over 100 µM. It also gave a TGI [33] of over 100 µM, a TGI [34] of over 100 µM and a TGI [36] of over 100 µM. It also gave a TGI [37] of over 100 µM, a TGI [38] of over 100 µM and a TGI [39] of over 100 µM. The TGI [40] was over 100 µM, the TGI [42] was over 100 µM and the TGI [57] was over 100 µM. The TGI [43] was over 100 µM, the TGI [44] was over 100 µM and the TGI [58] was over 100 µM. It also gave a TGI [45] of 32.8 µM, a TGI [46] of over 100 µM and a TGI [47] of over 100 µM. The TGI [48] was over 100 µM, the TGI [49] was over 100 µM and the TGI [50] was over 100 µM. The TGI [51] was over 100 µM, the TGI [52] was over 100 µM and the TGI [53] was over 100 µM. It also gave a TGI [54] of over 100 µM.
